A word on the solubility: it is how much of the substance goes into solution per volume.

Where two headings read alike, the source gives them in different places.

A short description of data set [1]: ADME solubility determination at pH 2.0 and pH 7.4. As to conditions: aqueous buffer, thermodynamic from solid, LC-MS/MS. It is filed as physicochemical. Summed up: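 Dried residues of 10 mM DMSO stocks were shaken in PBS pH 7.4 or pH 2.0 for 24 hours at 25° C. and 1,100 rpm. After centrifugation, supernatants were quantified by LC-MS/MS against a standard of known concentration, applying a dilution factor.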

The nature of data set [2]: Liver microsomal stability, human liver microsomes. The class given is in vitro ADME. The note with it: 1 μM compound, NADPH, read-out: t1/2 (min) in HLM. Summed up: (§1)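 Compound (1 μM final) was incubated with prewarmed human or rat liver microsomes (1 mg/mL in 100 mM phosphate master mix) plus NADPH; aliquots at 0.5–30 minutes were quenched in cold acetonitrile and quantified by LC-MS/MS. Half-life came from the ln(% remaining) versus time slope, converted to CLint (μL/min/mg prot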

The nature of data set [3]: Liver microsomal stability, rat liver microsomes. The class given is in vitro ADME. As to conditions: 1 μM compound, NADPH, read-out: t1/2 (min) in RLM. Summed up: as §1
On the technique in general: Liver microsomes are vesicles of endoplasmic reticulum, rich in cytochrome P450 enzymes.

Setting [4] is: PBS pH 2.0, shaken at 25° C. for 24 hours, read-out: Solubility at pH 2.0.
Where [5] appears, read: PBS pH 7.4, shaken at 25° C. for 24 hours, read-out: Solubility at pH 7.4.

For the molecule `CCn1c(-c2ccc(Cn3ncc4cnc(-c5c(OC)ncnc5C5CC5)nc43)cc2)nc(C(F)(F)F)c1OC` [Example 164, 6-(4-cyclopropyl-6-methoxypyrimidin-5-yl)-1-(4-(1-ethyl-5-methoxy-4-(trifluoromethyl)-1H-imidazol-2-yl)benzyl)-1H-pyrazolo[3,4-d]pyrimidine], the results for the solubility at 24 h in data set [1] (setting [4]) and in data set [1] (setting [5]) were more than 10 µM and less than 10 µM, respectively. Also, the half-life at 1 μM in data set [2] and in data set [3] was less than 25 min in each case.
In the case of `CCn1cc(C(F)(F)F)nc1-c1ccc(C(C)n2ncc3cnc(-c4c(OC)ncnc4C(C)C)nc32)cc1F` (stereo not drawn) [Example 116], the results for the solubility at 24 h in data set [1] (setting [4]) and in data set [1] (setting [5]) were more than 10 µM and less than 10 µM, respectively. In addition, the half-life at 1 μM in data set [2] and in data set [3] was less than 25 min throughout.
Consider `COc1ncnc(C2CC2(C)C)c1-c1ncc2cnn(Cc3ccc(-c4nc(C(F)(F)F)cn4C(C)C)cc3)c2n1` (stereo not drawn) [Example 108], for which the solubility at 24 h is more than 10 µM in data set [1] (setting [4]) and less than 10 µM in data set [1] (setting [5]). Besides, the half-life at 1 μM in data set [2] and in data set [3] was less than 25 min throughout.
On to `CCn1cc(C(F)(F)F)nc1-c1ccc(Cn2ncc3cnc(-c4c(OC(F)F)ncnc4C4CC4)nc32)cc1` [Example 61], for which the solubility at 24 h in data set [1] (setting [4]) and in data set [1] (setting [5]) was less than 10 µM throughout. Besides, the half-life at 1 μM was more than 25 min in data set [2] and less than 25 min in data set [3].
`COc1nc(C)c(-c2ncc3cnn(Cc4ccc(-c5nc(C(F)(F)F)cn5C)cc4)c3n2)c(OC)n1` [Example 111]: the solubility at 24 h in data set [1] (setting [4]) was more than 10 µM; in data set [1] (setting [5]) it was less than 10 µM. In addition, the half-life at 1 μM in data set [2] was less than 25 min; in data set [3] it was more than 25 min.
With `COc1ncnc(C)c1-c1ncc2cnn(Cc3ccc(-c4nc(C(F)(F)F)cn4C)cc3)c2n1` [Example 33], the solubility at 24 h in data set [1] (setting [4]) and in data set [1] (setting [5]) was more than 10 µM in each case. In addition, the half-life at 1 μM in data set [2] and in data set [3] was more than 25 min each time.
For the molecule `COc1cnn(C2CC2)c1-c1ncc2cnn(Cc3ccc(-c4nc(C(F)(F)F)cn4C)cc3)c2n1` [Example 81], the solubility at 24 h in data set [1] (setting [4]) and in data set [1] (setting [5]) was less than 10 µM in each case. In addition, the half-life at 1 μM in data set [2] and in data set [3] was less than 25 min each time.
On to `COc1ccccc1-c1ncc2cnn(Cc3ccc(-c4nc(C(F)(F)F)cn4C)cc3)c2n1` [Example 2, 6-(2-methoxyphenyl)-1-(4-(1-methyl-4-(trifluoromethyl)-1H-imidazol-2-yl)benzyl)-1H-pyrazolo[3,4-d]pyrimidine], for which the solubility at 24 h in data set [1] (setting [4]) is more than 10 µM; in data set [1] (setting [5]) it was less than 10 µM. Besides, the half-life at 1 μM in data set [2] and in data set [3] was less than 25 min each time.
`COc1ncnc(C2CC2)c1-c1ncc2nnn(Cc3ccc(-c4nc(C(F)(F)F)cn4C)cc3)c2n1` [Example 215, 5-(4-cyclopropyl-6-methoxypyrimidin-5-yl)-3-(4-(1-methyl-4-(trifluoromethyl)-1H-imidazol-2-yl)benzyl)-3H-[1,2,3]triazolo[4,5-d]pyrimidine]: the solubility at 24 h in data set [1] (setting [4]) and in data set [1] (setting [5]) was more than 10 µM throughout. Besides, the half-life at 1 μM was more than 25 min in data set [2] and less than 25 min in data set [3].
On to `COc1ncnc(C2CC2)c1-c1ncc2cnn(Cc3ccc(-c4nc(C(F)(F)F)cn4C(C)C)cc3)c2n1` [Example 143], for which the solubility at 24 h in data set [1] (setting [4]) and in data set [1] (setting [5]) was less than 10 µM in each case. Besides, the half-life at 1 μM in data set [2] and in data set [3] was more than 25 min each time.
For the molecule `COc1ncnc(C2CC2)c1-c1ncc2c(OC)nn([C@@H](C)c3ccc(-c4nc(C(F)(F)F)cn4C(C)C)cc3)c2n1` [Example 181], the solubility at 24 h is more than 10 µM in data set [1] (setting [4]) and less than 10 µM in data set [1] (setting [5]). In addition, the half-life at 1 μM in data set [2] and in data set [3] was more than 25 min in each case.
Take `COc1ncnc(C2CC2)c1-c1ncc2cnn(Cc3ccc(-c4nc(C(F)(F)F)c(Br)n4C(C)C)cc3)c2n1` [Example 162]: the solubility at 24 h in data set [1] (setting [4]) and in data set [1] (setting [5]) was less than 10 µM in each case. Further, the half-life at 1 μM in data set [2] and in data set [3] was more than 25 min each time.
As for `COc1ncnc(C2(C)CC2)c1-c1ncc2cnn(Cc3ccc(-n4nc(C(F)(F)F)cc4OC)cc3)c2n1` [Example 106], the solubility at 24 h in data set [1] (setting [4]) and in data set [1] (setting [5]) was less than 10 µM each time. Besides, the half-life at 1 μM in data set [2] and in data set [3] was more than 25 min each time.
In the case of `Cn1cc(C(F)(F)F)nc1-c1ccc(Cn2ncc3cnc(-c4c(OS(=O)(=O)C(F)(F)F)ncnc4C4CC4)nc32)cc1` [Example 160, 6-Cyclopropyl-5-(1-(4-(1-methyl-4-(trifluoromethyl)-1H-imidazol-2-yl)benzyl)-1H-pyrazolo[3,4-d]pyrimidin-6-yl)pyrimidin-4-yl trifluoromethanesulfonate], the solubility at 24 h in data set [1] (setting [4]) and in data set [1] (setting [5]) was less than 10 µM in each case. The half-life at 1 μM in data set [2] and in data set [3] was more than 25 min throughout.
Take `CCn1cc(C(F)(F)F)nc1-c1ccc([C@H](C)n2ncc3cnc(-c4c(OC)ncnc4C(C)C)nc32)cc1F` [Example 118]: the solubility at 24 h in data set [1] (setting [4]) and in data set [1] (setting [5]) was less than 10 µM each time. Further, the half-life at 1 μM in data set [2] is more than 25 min; in data set [3], less than 25 min.
For `COc1ncnc(C2CC2)c1-c1ncc2nc(C)n(Cc3ccc(-n4nc(C(F)(F)F)cc4C)cc3)c2n1` [Example 211], the solubility at 24 h in data set [1] (setting [4]) and in data set [1] (setting [5]) was more than 10 µM throughout. Also, the half-life at 1 μM in data set [2] is less than 25 min; in data set [3], more than 25 min.
On to `COc1cc(Cn2ncc3cnc(-c4c(OC)ncnc4C4CC4)nc32)ccc1-c1cn(C)c(C(F)(F)F)n1` [Example 35], for which the solubility at 24 h in data set [1] (setting [4]) and in data set [1] (setting [5]) was less than 10 µM in each case. Besides, the half-life at 1 μM in data set [2] and in data set [3] was more than 25 min throughout.
Take `CCn1cc(C(F)(F)F)nc1-c1ccc(Cn2ncc3cnc(-c4c(OCCF)ncnc4C4CC4)nc32)cc1` [Example 54]: the solubility at 24 h in data set [1] (setting [4]) and in data set [1] (setting [5]) was less than 10 µM each time. The half-life at 1 μM in data set [2] and in data set [3] was less than 25 min throughout.
With `Cn1cc(C(F)(F)F)nc1-c1ccc(Cn2ncc3cnc(-c4ccccc4S(C)(=O)=O)nc32)cc1` [Example 3, 1-(4-(1-methyl-4-(trifluoromethyl)-1H-imidazol-2-yl)benzyl)-6-(2-(methylsulfonyl)-phenyl)-1H-pyrazolo[3,4-d]pyrimidine], the figures for the solubility at 24 h in data set [1] (setting [4]) and in data set [1] (setting [5]) were more than 10 µM and less than 10 µM, respectively. Further, the half-life at 1 μM in data set [2] and in data set [3] was more than 25 min each time.
Take `COc1ncnc(C2CC2)c1-c1ncc2cnn(Cc3ccc(-c4nc(C#N)cn4C)cc3)c2n1` [Example 69]: the solubility at 24 h in data set [1] (setting [4]) and in data set [1] (setting [5]) was more than 10 µM throughout. The half-life at 1 μM in data set [2] and in data set [3] was less than 25 min each time.
As for `CCc1nc2cnc(-c3c(OC)ncnc3C3CC3)nc2n1Cc1ccc(-c2nc(C(F)(F)F)cn2C(C)C)cc1` [Example 205, 2-(4-cyclopropyl-6-methoxypyrimidin-5-yl)-8-ethyl-9-(4-(1-isopropyl-4-(trifluoromethyl)-1H-imidazol-2-yl)benzyl)-9H-purine], the solubility at 24 h in data set [1] (setting [4]) and in data set [1] (setting [5]) was more than 10 µM throughout. Further, the half-life at 1 μM in data set [2] and in data set [3] was more than 25 min throughout.
On to `Cc1nn(Cc2ccc(-c3nc(C(F)(F)F)cn3C)cc2)c2nc(-c3ccccc3C(C)C)ncc12` [Example 25], for which the solubility at 24 h in data set [1] (setting [4]) and in data set [1] (setting [5]) was less than 10 µM each time. In addition, the half-life at 1 μM in data set [2] and in data set [3] was less than 25 min throughout.
Regarding `COCCOc1ncnc(C2CC2)c1-c1ncc2cnn(Cc3ccc(-c4nc(C(F)(F)F)cn4C)cc3)c2n1` [Example 42], the solubility at 24 h in data set [1] (setting [4]) and in data set [1] (setting [5]) was more than 10 µM each time. Moreover, the half-life at 1 μM in data set [2] and in data set [3] was less than 25 min in each case.
With `[2H]C([2H])([2H])Oc1ncnc(C2CC2)c1-c1ncc2cnn(Cc3ccc(-c4nc(C(F)(F)F)cn4CC)cc3)c2n1` [Example 67], the solubility at 24 h in data set [1] (setting [4]) is more than 10 µM; in data set [1] (setting [5]), less than 10 µM. The half-life at 1 μM in data set [2] and in data set [3] was more than 25 min throughout.
On to `Cc1cc(C(F)(F)F)nn1-c1ccc(Cn2ncc3cnc(-c4ccccc4C(C)C)nc32)cc1` [Example 23], for which the solubility at 24 h in data set [1] (setting [4]) and in data set [1] (setting [5]) was less than 10 µM in each case. Further, the half-life at 1 μM in data set [2] was more than 25 min; in data set [3], less than 25 min.
For the molecule `COc1ncnc(C(C)(C)C)c1-c1ncc2cnn(Cc3ccc(-c4nc(C(F)(F)F)cn4C)cc3)c2n1` [Example 109], the solubility at 24 h in data set [1] (setting [4]) and in data set [1] (setting [5]) was less than 10 µM each time. Besides, the half-life at 1 μM in data set [2] and in data set [3] was less than 25 min in each case.
Regarding `COc1cccc(C)c1-c1ncc2cnn(Cc3ccc(-c4nc(C(F)(F)F)cn4C)cc3)c2n1` [Example 5, 6-(2-methoxy-6-methylphenyl)-1-(4-(1-methyl-4-(trifluoromethyl)-1H-imidazol-2-yl)benzyl)-1H-pyrazolo[3,4-d]pyrimidine], the solubility at 24 h was more than 10 µM in data set [1] (setting [4]) and less than 10 µM in data set [1] (setting [5]). Also, the half-life at 1 μM in data set [2] and in data set [3] was less than 25 min each time.

These data come from US11485736B2 (KSQ Therapeutics, Inc., priority 2018, dated 2022).
